According to patent publication US7220780B2, “Naaladase inhibitors for treating retinal disorders and glaucoma” (Guilford Pharmaceuticals Inc., priority 2000, dated 2007):

Legend:
[1] = target: NAALADase (Rattus norvegicus, UniProt P70627); experiment: In vitro inhibition of NAALADase activity; assay type: biochemical; settings: for Ki: read-out: K1
[2] = system: male Brown Norway rats; experiment: Experimental rat glaucoma (IOP elevation by hypertonic saline), optic nerve fiber counting; assay type: in vivo; settings: 8 week group, 10 mg/kg daily i.p.
Protocol: (§1) All experiments complied with the Association for Research in Vision and Ophthalmology Statement for the Use of Animals in Ophthalmic and Vision Research. 82 male Brown Norway rats (Rattus norvegicus), each weighing approximately 250 gm, were treated using procedures approved by the Animal Care Committee of the Johns Hopkins University School of Medicine. The rats were housed with a 12 hour light/12 hour dark cycle and fed ad libitum .
EXPERIMENTAL GLAUCOMA: Unilateral elevation of IOP was produced in 56 rats by microinjection of hypertonic saline into episcleral veins, following procedures described in Morrison, J. et al., IOVS (March 1998) 39:526-531. Beginning on the day of IOP elevation, the rats were treated daily with intraperitoneal injections of either a vehicle (23 rats with 50 mM HEPES-buffered saline) or a NAALADase inhibitor (11 rats with 10 mg/kg of 2-[[(2,3,4,5,6-pentafluorobenzyl)hydroxyphosphinyl]-methyl]pentanedioic acid (“Compound A”) and 22 rats with 10 mg/kg of 2-(3-sulfanylpropyl)pentanedioic acid (“Compound B”)). 11 saline treated rats, 11 Compound A treated rats and 11 Compound B treated rats were sacrificed at 8 weeks, and the remaining rats at 12 weeks, after initial IOP elevation.
(§2) OPTIC NERVE COUNTING: The rats were sacrificed by exsanguination under deep pentobarbital anesthesia. They were perfused through the heart with 2% paraformaldehyde/2% glutaraldehyde in 0.1 M phosphate buffer, pH 7.2, and the eyes with attached optic nerves were removed. A cross-section of the optic nerve from both experimental (glaucoma or transection) and control eyes was removed 1.5 mm posterior to the globe, 1 mm in thickness, and post-fixed in 2% osmium tetroxide in buffer. These were processed into epoxy resin, sectioned at 1 micron and stained with toluidine blue.
(§3) The area of the optic nerve cross-section was measured by outlining its outer border at 10×magnification on an image analysis system (Universal Imaging Corp., Westchester, Pa.) with Synsys digital camera and Metamorph software. Three area measurements were taken and the mean value was determined. To measure the density and fiber diameter distributions, images were captured with a 100× phase contrast objective from 10 different areas of each nerve. These were edited to eliminate non-neural objects and the size of each axon internal to the myelin sheath (its minimum diameter) and the density of axons/square mm were calculated for each image and nerve. The mean density was multiplied by total nerve area to yield fiber number for each nerve. The total fiber number in glaucoma or transection nerves was compared to the normal, fellow eye of each rat to yield a percent loss value. The number of axons counted among the 10 images was an approximately 20% sample of the 80-90,000 axons in normal rat nerves. The person measuring axon number was masked to the protocol conducted on the nerves.

[3] = system: male Brown Norway rats; experiment: Optic nerve transection in rats, optic nerve fiber counting; assay type: in vivo, Rattus norvegicus; settings: for FIBER NUMBER ± SEM / PERCENT DIFFERENCE ± SEM: 10 mg/kg daily i.p.; for PERCENT DIFFERENCE ± SEM: transected vs normal eye
Protocol: as §1
OPTIC NERVE TRANSECTION: The optic nerve was transected unilaterally in 26 rats under intraperitoneal pentobarbital anesthesia. The conjunctiva was opened with scissors and the optic nerve exposed by traction on extraocular muscles. The transection was performed with microscissors 5 mm posterior to the globe, with specific attention to avoidance of injury to major ocular blood vessels. Immediately after transection, the retina was examined ophthalmoscopically to assure that the retinal arterial blood supply was not disrupted. The conjunctiva was closed with absorbable suture and the eye dressed with antibiotic ointment. Beginning on the day of transection, the rats were treated daily with intraperitoneal injections of either a vehicle (9 rats with 50 mM HEPES-buffered saline) or a NAALADase inhibitor (8 rats with 10 mg/kg of Compound A and 9 rats with 10 mg/kg of Compound B). 5 saline treated rats, 3 Compound A treated rats and 4 Compound B treated rats were sacrificed at 2 weeks, and the remaining rats at 4 weeks, after transection.
as §2, §3

[4] = 2 weeks survival after transection
[5] = 4 weeks survival after transection

NAALADase, sequence (P70627 whole entry): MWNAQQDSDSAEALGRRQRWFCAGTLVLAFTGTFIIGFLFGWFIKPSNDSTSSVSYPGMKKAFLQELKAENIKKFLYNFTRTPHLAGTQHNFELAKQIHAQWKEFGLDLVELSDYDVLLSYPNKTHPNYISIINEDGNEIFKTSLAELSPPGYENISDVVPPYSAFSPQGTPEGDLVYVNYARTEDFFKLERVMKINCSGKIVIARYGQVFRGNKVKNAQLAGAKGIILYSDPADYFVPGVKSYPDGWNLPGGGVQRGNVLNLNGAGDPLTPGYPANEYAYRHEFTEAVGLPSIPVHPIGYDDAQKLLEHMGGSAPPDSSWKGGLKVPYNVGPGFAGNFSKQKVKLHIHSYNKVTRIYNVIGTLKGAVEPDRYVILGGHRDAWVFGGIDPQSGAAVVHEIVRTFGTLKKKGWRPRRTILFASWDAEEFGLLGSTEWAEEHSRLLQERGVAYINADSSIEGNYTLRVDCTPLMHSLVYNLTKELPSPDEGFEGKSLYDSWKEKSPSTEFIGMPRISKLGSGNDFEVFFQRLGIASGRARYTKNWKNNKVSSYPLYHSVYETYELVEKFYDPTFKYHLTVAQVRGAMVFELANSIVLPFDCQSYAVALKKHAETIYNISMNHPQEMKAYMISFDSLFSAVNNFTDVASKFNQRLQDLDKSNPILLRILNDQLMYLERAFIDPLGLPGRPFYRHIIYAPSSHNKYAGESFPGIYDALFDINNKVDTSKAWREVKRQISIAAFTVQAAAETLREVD

| Molecule | Ki [1] [µM] | other results |
| --- | --- | --- |
| 3-(2-Carboxy-4-hydroxycarbamoyl-butyl)-benzoic acid |  | IC50 [1]: 0.0478 µM |
| O=C(O)c1ccc(C(=O)O)c(S(=O)(=O)c2cc(C(=O)O)ccc2C(=O)O)c1 [2-[(2,5-dicarboxyphenyl)sulfonyl]-1,4-benzenedicarboxylic acid] | 1.87 |  |
| O=C(O)c1ccc(Sc2ccccc2C(=O)O)c(C(=O)O)c1 [4-[(2-carboxyphenyl)thio]-1,3-benzenedicarboxylic acid] | 3.98 |  |
| O=C(Cc1cc(C(=O)O)cc(C(=O)O)c1)NO [5-[2-(hydroxyamino)-2-oxoethyl]-1,3-benzenedicarboxylic acid] | 12 |  |
| O=C(O)CNc1cc(C(=O)O)cc(C(=O)O)c1 [5-[(carboxymethyl)amino]-1,3-benzenedicarboxylic acid] | 100 |  |
| O=C(O)c1cc(CS)cc(C(=O)O)c1 [5-mercaptomethyl-1,3-benzenedicarboxylic acid] | 6.5 |  |
| O=C(O)c1cc(CP(=O)(O)O)cc(C(=O)O)c1 [5-phosphonomethyl-1,3-benzenedicarboxylic acid] | 3.1 |  |
| O=C(O)CCC(CP(=O)(O)Cc1c(F)c(F)c(F)c(F)c1F)C(=O)O (stereo not drawn) [Compound A, 2-[[(2,3,4,5,6-pentafluorobenzyl)hydroxyphosphinyl]-methyl]pentanedioic acid] |  | FIBER NUMBER ± SEM [2]: 79156 ± 2436; PERCENT DIFFERENCE ± SEM ([2]; fiber number glaucoma vs normal eye, positive = fewer fibers in glaucoma eye): −1.82 ± 2.92%; IOP INTEGRAL DIFFERENCE ± SEM ([2]; glaucoma eye vs normal eye): 85 ± 37.5 mm Hg—days; remaining axons relative to the saline-treated rats ([3]; 2 weeks after transection): 3 times; FIBER NUMBER ± SEM [3, 4]: 26,426 ± 13,293; PERCENT DIFFERENCE ± SEM [3, 4]: 65.3 ± 17.8%; FIBER NUMBER ± SEM [3, 5]: 13,599 ± 3,519; PERCENT DIFFERENCE ± SEM [3, 5]: 82.4 ± 4.0% |

Continued by falling Ki [1], values first:

| Ki [1] [µM] | Molecule | other results |
| --- | --- | --- |
| 50 | O=C(O)c1cc(CNCc2ccco2)cc(C(=O)O)c1 [5-[[(2-furanylmethyl)amino]methyl]-1,3-benzenedicarboxylic acid] |  |
| 14.5 | O=C(O)c1cc(OCCS)cc(C(=O)O)c1 [5-(2-mercaptoethoxy)-1,3-benzenedicarboxylic acid] |  |
| 14 | O=C(O)c1cc(C(=O)O)cc(P(=O)(O)O)c1 [5-phosphono-1,3-benzenedicarboxylic acid] |  |
| 9 | O=C(O)Cc1cc(C(=O)O)ccc1C(=O)O [2-carboxymethyl-1,4-benzenedicarboxylic acid] |  |
| 5.1 | O=C(O)c1cc(CCS)cc(C(=O)O)c1 [5-(2-mercaptoethyl)-1,3-benzenedicarboxylic acid] |  |
| 3.75 | O=C(O)c1ccc(OCCCSSCCCOc2ccc(C(=O)O)cc2C(=O)O)c(C(=O)O)c1 [4-[3-[[3-(2,4-dicarboxyphenoxy)-propyl]-dithio]propoxy]-1,3-benzenedicarboxylic acid] |  |
| 3.3 | O=C(O)c1cc(OCCCS)cc(C(=O)O)c1 [5-(3-mercaptopropoxy)-1,3-benzenedicarboxylic acid] |  |
| 2.37 | O=C(O)c1ccc(S(=O)(=O)c2cc(C(=O)O)ccc2C(=O)O)cc1 [2-[(4-carboxyphenyl)sulfonyl]-1,4-benzenedicarboxylic acid] |  |
| 1.17 | O=C(O)c1ccc(C(=O)c2ccc(Oc3ccc(C(=O)O)c(C(=O)O)c3)cc2)c(C(=O)O)c1 [4-[4-(2,4-dicarboxybenzoyl)phenoxy]-1,2-benzenedicarboxylic acid] |  |
| 1 | O=C(O)c1cc(C(=O)O)cc(C(=O)NO)c1 [5-[(hydroxyamino)-carbonyl]-1,3-benzenedicarboxylic acid] |  |
| 0.572 | O=C(O)c1ccc(C(=O)O)c(Sc2ccccc2C(=O)O)c1 [2-[(2-carboxyphenyl)thio]-1,4-benzenedicarboxylic acid] |  |
| 0.116 | O=C(O)c1ccc(CCS)c(C(=O)O)c1 [4-(2-mercaptoethyl)-1,3-benzenedicarboxylic acid] |  |
